Assay results: EP4361157A1, “FUSED TETRACYCLIC COMPOUND, PREPARATION METHOD THEREFOR AND APPLICATION THEREOF IN MEDICINE” (Jiangsu Hengrui Pharmaceuticals Co., Ltd., priority 2021, dated 2022)

Assays:
Format in all cases: cell-based
[1] = system: AGS cells; experiment: Inhibition of ERK phosphorylation of AGS cells (HTRF method); details: Homo sapiens, AGS, phosphorylated ERK/total ERK ratio, 1 h incubation
Method: AGS cells (Nanjing Cobioer, CBP60476) were cultured in RPMI1640 (Hyclone, SH30809.01) complete medium containing 10% fetal bovine serum. On the first day of the experiment, the AGS cells were seeded into a 96-well plate with complete medium at a density of 40,000 cells/well to form 190 µL of cell suspension per well. The plate was incubated overnight in a cell incubator at 37 °C with 5% CO2.
The next day, 10 µL of serially-diluted test compound prepared from the complete medium was added to each well. The final concentrations of the compound were 9 concentration points obtained by 5-fold serial dilution from 10 µM. A blank control containing 0.5% DMSO was set. The well plate was incubated in a cell incubator at 37 °C with 5% CO2 for 1 h. After completion of incubation, the 96-well cell culture plate was taken out, the medium was removed by pipetting, 200 µL PBS (Shanghai BasalMedia Technologies Co., Ltd., B320) was added to each well, and the cells were washed once. PBS was removed by pipetting, 50 µL of lysis buffer (Cisbio, 64KL1FDF) containing a blocking solution (blocking reagent, Cisbio, 64KB1AAC) was added to each well, and the well plate was lysed on a shaker for 40 min at room temperature with shaking. After lysis, the lysate was pipetted and mixed well, 16 µL of lysate was transferred to two HTRF 96-well assay plates (Cisbio, 66PL96100) per well, and then 4 µL of premixed phosphorylated ERK1/2 antibody solution (Cisbio, 64AERPEG) or 4 µL of premixed total ERK1/2 antibody solution (Cisbio, 64NRKPEG) was added to these two plates. The microplate was sealed with a sealing membrane, centrifuged for 1 min in a microplate centrifuge, and incubated overnight at room temperature in the dark. On the third day, the fluorescence values at an excitation wavelength of 337 nm and at emission wavelengths of 665 nm and 620 nm were read using an ENVISION multifunctional microplate reader (PerkinElmer, ENVISION).
Table 1. Inhibitory activity data for ERK phosphorylation of AGS cells

[2] = system: AGS cells; experiment: Inhibition of 3D proliferation of AGS cells (CellTiter-Glo 3D); details: Homo sapiens, 120 h incubation
Method: AGS cells (Nanjing Cobioer, CBP60476) were cultured in a complete medium, namely RPMI1640 medium (Hyclone, SH30809.01) containing 10% fetal bovine serum (Corning, 35-076-CV). On the first day of the experiment, the AGS cells were seeded into a 96-well low adsorption plate (Corning, CLS7007-24EA) at a density of 1,000 cells/well using complete medium to form 90 µL of cell suspension per well. The plate was centrifuged at 2,000rpm for 5 min at room temperature and then incubated overnight in a cell incubator at 37 °C with 5% CO2.
(§1) The next day, 10 µL of serially-diluted test compound prepared from the complete medium was added to each well. The final concentrations of the compound of GP2d cells were 9 concentration points obtained by 3-fold serial dilution from 1 µM, and the final concentrations of the compound of AGS cells were 9 concentration points obtained by 3-fold serial dilution from 10 µM. A blank control containing 0.5% DMSO was set. The well plate was incubated in a cell incubator at 37 °C with 5% CO2 for 120 h. On the seventh day, the 96-well cell culture plate was taken out, 50 µL CellTiter-Glo® 3D reagent (Promega, G9682) was added into each well, the plate was shaken at room temperature for 25 min, pipetted and mixed well, 50 µL of the solution was transferred into a white impermeable 96-well plate (PE, 6005290), and the luminescence signal values were read using a multifunctional microplate reader (PerkinElmer, ENVISION).
(§2) Table 2. Inhibitory activity data for 3D proliferation of AGS and GP2d cells

[3] = system: GP2d cells; experiment: Inhibition of 3D proliferation of GP2d cells (CellTiter-Glo 3D); details: 120 h incubation
Method: GP2d cells (Nanjing Cobioer, CBP60010) were cultured in a complete medium, namely DMEM/high glucose medium (Hyclone, SH30243.01) containing 10% fetal bovine serum (Corning, 35-076-CV). On the first day of the experiment, GP2d cells were seeded into a 96-well low adsorption plate (Corning, CLS7007-24EA) with complete medium at a density of 1,000 cells/well to form 90 µL of cell suspension per well. The plate was centrifuged at 2,000 rpm for 5 min at room temperature and then incubated overnight in a cell incubator at 37 °C with 5% CO2.
as §1, §2

Row | Structure (SMILES) | IC50 [1] | IC50 [2] | IC50 [3]
1 | Oc1cc(-c2nc3c4c(nc(OC[C@@]56CCCN5C[C@H](F)C6)nc4c2F)N2C[C@H]4CC[C@H](N4)[C@H]2CO3)c2c(F)cccc2c1 [Example 3-p1, 5-Fluoro-4-((5aS,6S,9R)-1-fluoro-12-(((2R,7aS)-2-fluorotetrahydro-1H-pyrrolizin-7a(5 H)-yl)methoxy)-5a,6,7,8,9,10-hexahydro-5H-4-oxa-3,10a,11,13,14-pentaaza-6,9-methanonaphtho[1,8-ab]heptalen-2-yl)naphthalen-2-ol] | 17 nM | 95.3 nM | 13 nM
2 | CCc1cccc2cc(O)cc(-c3nc4c5c(nc(OC[C@@]67CCCN6C[C@H](F)C7)nc5c3F)N3C[C@H]5CC[C@H](N5)[C@H]3CO4)c12 [Example 4-p1, 5-Ethyl-4-((5aS,6S,9R)-1-fluoro-12-(((2R,7aS)-2-fluorotetrahydro-1H-pyrrolizin-7a(5H )-yl)methoxy)-5a,6,7,8,9,10-hexahydro-5H-4-oxa-3,10a,11,13,14-pentaaza-6,9-methanonaphtho[1,8-ab]heptalen-2-yl)naphthalen-2-ol] | 2 nM | 14.5 nM | 0.8 nM
3 | Oc1cc(Cl)c(C2CC2)c(-c2nc3c4c(nc(OC[C@@]56CCCN5C[C@H](F)C6)nc4c2F)N2C[C@H]4CC[C@H](N4)[C@H]2CO3)c1 [Example 6-p1, 3-Chloro-4-cyclopropyl-5-((5aS,6S,9R)-1-fluoro-12-(((2R,7aS)-2-fluorotetrahydro-1H-pyrrolizin-7a(5H)-yl)methoxy)-5a,6,7,8,9,10-hexahydro-5H-4-oxa-3,10a,11,13,14-pentaaza-6,9-methanonaphtho[1,8-ab]heptalen-2-yl)phenol] | 1.2 nM | 32.9 nM | 7.2 nM
4 | Oc1cc(-c2nc3c4c(nc(OC[C@@]56CCCN5C[C@H](F)C6)nc4c2F)N2C[C@H]4CC[C@H](N4)[C@H]2CO3)c2c(F)c(F)ccc2c1 [Example 8-p1, 5,6-Difluoro-4-((5aS,6S,9R)-1-fluoro-12-(((2R,7aS)-2-fluorotetrahydro-1H-pyrrolizin-7 a(5H)-yl)methoxy)-5a,6,7,8,9,10-hexahydro-5H-4-oxa-3,10a,11,13,14-pentaaza-6,9-methanonaphtho[1,8-ab]heptalen-2-yl)naphthalen-2-ol] | 1.4 nM | 50.3 nM | 1.3 nM
5 | CCc1c(F)ccc2cc(O)cc(-c3nc4c5c(nc(OC[C@@]67CCCN6C[C@H](F)C7)nc5c3F)N3C[C@H]5CC[C@H](N5)[C@H]3CO4)c12 [Example 9-p1, 5-Ethyl-6-fluoro-4-((5aS,6S,9R)-1-fluoro-12-(((2R,7aS)-2-fluorotetrahydro-1H-pyrrolizin-7a(5H)-yl)methoxy)-5a,6,7,8,9,10-hexahydro-5H-4-oxa-3,10a,11,13,14-pentaaza-6,9-methanonaphtho[1,8-ab]heptalen-2-yl)naphthalen-2-ol] | 0.4 nM | 5.8 nM | 0.9 nM
6 | CCc1c(F)ccc2cc(O)cc(-c3nc4c5c(nc(OCC6(CN7CCC[C@H]7CO)CC6)nc5c3F)N3C[C@H]5CC[C@H](N5)[C@H]3CO4)c12 [Example 17, 5-Ethyl-6-fluoro-4-((5aS,6S,9R)-1-fluoro-12-((1-(((S)-2-(hydroxymethyl)pyrrolidin-1-yl)methyl)cyclopropyl)methoxy)-5a,6,7,8,9,10-hexahydro-5H-4-oxa-3,10a,11,13,14-pentaaza-6,9-methanonaphtho[1,8-ab]heptalen-2-yl)naphthalen-2-ol] | 2.8 nM | 52.2 nM | 4.9 nM
